Measurements from ChEMBL document CHEMBL5512682, “Discovery of BMS-986308: A Renal Outer Medullary Potassium Channel Inhibitor for the Treatment of Heart Failure” (J Med Chem, 2024).
Values after ≈ are worked out from the molar mass of the structure shown.

Experiments:
[1] = Metabolic stability in human liver microsomes assessed as parent compound remaining at 10 uM measured after 10 mins in presence of NADPH and GSH by UPLC-MS/MS analysis; assay type: ADME, Microsome; settings: read-out: Stability
[2] = Metabolic stability in rat liver microsomes assessed as parent compound remaining at 10 uM measured after 10 mins in presence of NADPH and GSH by UPLC-MS/MS analysis; assay type: ADME, Microsome; settings: read-out: Stability
[3] = Glutathione reactivity in human liver microsomes assessed as GSH-adduct formation at 10 uM incubated for 60 mins in presence of NADPH and GSH by HPLC-MS analysis; assay type: ADME, Microsome; settings: 1 h
[4] = target: Inward rectifier potassium channel 2 (Homo sapiens, UniProt P63252); experiment: Inhibition of Kir 2.1 (unknown origin)
[5] = target: Inward rectifier potassium channel 4 (Homo sapiens, UniProt P48050); experiment: Inhibition of Kir 2.3 (unknown origin)
[6] = target: ATP-sensitive inward rectifier potassium channel 10 (Homo sapiens, UniProt P78508); experiment: Inhibition of Kir 4.1 (unknown origin)
[7] = target: Inward rectifier potassium channel 13 (Homo sapiens, UniProt O60928); experiment: Inhibition of Kir 7.1 (unknown origin)
[8] = Permeability of compound from apical to basolateral side in human Caco-2 cells; assay type: ADME, cell-based; settings: read-out: permeability
[9] = Permeability of compound from basolateral to apical side in human Caco-2 cells; assay type: ADME, cell-based
Cytochrome P450 1A2 = Cytochrome P450 1A2 (Homo sapiens, UniProt P05177); experiment: Inhibition of CYP1A2 in human liver microsomes; assay type: ADME, Microsome
Cytochrome P450 2B6 = Cytochrome P450 2B6 (Homo sapiens, UniProt P20813); experiment: Inhibition of CYP2B6 in human liver microsomes; assay type: ADME, Microsome
Cytochrome P450 2C8 = Cytochrome P450 2C8 (Homo sapiens, UniProt P10632); experiment: Inhibition of CYP2C8 in human liver microsomes; assay type: ADME, Microsome
Cytochrome P450 2C9 = Cytochrome P450 2C9 (Homo sapiens, UniProt P11712); experiment: Inhibition of CYP2C9 in human liver microsomes; assay type: ADME, Microsome
Cytochrome P450 2C19 = Cytochrome P450 2C19 (Homo sapiens, UniProt P33261); experiment: Inhibition of CYP2C19 in human liver microsomes; assay type: ADME, Microsome
Cytochrome P450 2D6 = Cytochrome P450 2D6 (Homo sapiens, UniProt P10635); experiment: Inhibition of CYP2D6 in human liver microsomes; assay type: ADME, Microsome
Cytochrome P450 3A4 [10] = target: T1, Cytochrome P450 3A4 (Homo sapiens, UniProt P08684); experiment: Inhibition of CYP3A4 in human liver microsomes using midazolam as substrate; assay type: ADME, Microsome
Cytochrome P450 3A4 [11] = target: T1, Cytochrome P450 3A4; experiment: Inhibition of CYP3A4 in human liver microsomes using testosterone as substrate; assay type: ADME, Microsome
CYP1A2 = CYP1A2 (Homo sapiens, UniProt P05177); experiment: Induction of CYP1A2 (unknown origin); assay type: ADME
CYP2B6 = CYP2B6 (Homo sapiens, UniProt P20813); experiment: Induction of CYP2B6 (unknown origin); assay type: ADME
CYP3A4 = CYP3A4 (Homo sapiens, UniProt P08684); experiment: Induction of CYP3A4 (unknown origin); assay type: ADME
[12] = Protein binding in human plasma assessed as unbound fraction; assay type: ADME, cell-free
[13] = Protein binding in rat plasma assessed as unbound fraction; assay type: ADME, cell-free
[14] = Protein binding in mouse plasma assessed as unbound fraction; assay type: ADME, cell-free
[15] = Protein binding in dog plasma assessed as unbound fraction; assay type: ADME, cell-free, Canis lupus familiaris
[16] = Protein binding in Cynomolgus monkey plasma assessed as unbound fraction; assay type: ADME, cell-free, Macaca fascicularis
[17] = target: Nuclear receptor subfamily 1 group I member 2 (Homo sapiens, UniProt O75469); experiment: Activation of PXR (unknown origin)
[18] = Cytotoxicity against human HepG2 cells; assay type: toxicity, cell-based
[19] = target: Multidrug and toxin extrusion protein 1 (Homo sapiens, UniProt Q96FL8); experiment: Inhibition of MATE1 (unknown origin)
Bile salt export pump = Bile salt export pump (Homo sapiens, UniProt O95342); experiment: Inhibition of BSEP (unknown origin)
[20] = target: Solute carrier organic anion transporter family member 1B1 (Homo sapiens, UniProt Q9Y6L6); experiment: Inhibition of OATP1B1 (unknown origin)
[21] = target: Solute carrier organic anion transporter family member 1B3 (Homo sapiens, UniProt Q9NPD5); experiment: Inhibition of OATP1B3 (unknown origin)
[22] = target: Hepatic sodium/bile acid cotransporter (Homo sapiens, UniProt Q14973); experiment: Inhibition of NTCP (unknown origin)
[23] = target: ATP-binding cassette sub-family C member 2 (Homo sapiens, UniProt Q92887); experiment: Inhibition of MRP2 (unknown origin)
[24] = target: Solute carrier family 22 member 6 (Homo sapiens, UniProt Q4U2R8); experiment: Inhibition of OAT1 (unknown origin)
[25] = target: Organic anion transporter 3 (Homo sapiens, UniProt Q8TCC7); experiment: Inhibition of OAT3 (unknown origin)
[26] = target: Broad substrate specificity ATP-binding cassette transporter ABCG2 (Homo sapiens, UniProt Q9UNQ0); experiment: Inhibition of BCRP (unknown origin)
[27] = Solubility of compound at pH 1.1; assay type: physicochemical; settings: buffer
[28] = Solubility of compound at pH 7.4; assay type: physicochemical; settings: buffer
[29] = Volume of distribution at steady state in mouse at 2 mg/kg, iv; assay type: ADME, organism-based; settings: in vivo, read-out: Vdss
[30] = Half-life in mouse at 2 mg/kg, iv; assay type: ADME, organism-based; settings: in vivo
[31] = MRT in mouse at 2 mg/kg, iv; assay type: ADME, organism-based; settings: in vivo
[32] = Cmax in mouse at 2 mg/kg, po; assay type: ADME, organism-based; settings: in vivo
[33] = Tmax in mouse at 2 mg/kg, po; assay type: ADME, organism-based; settings: in vivo
[34] = AUC (0 to t) in mouse at 2 mg/kg, po; assay type: ADME, organism-based; settings: in vivo
[35] = Oral bioavailability in mouse at 5 mg/kg; assay type: ADME, organism-based; settings: in vivo
[36] = Volume of distribution at steady state in male Sprague-Dawley rat at 2 mg/kg, iv measured after 24 hrs by LC-MS/MS analysis; assay type: ADME, organism-based; settings: in vivo, read-out: Vdss
[37] = Half-life in male Sprague-Dawley rat at 2 mg/kg, iv measured after 24 hrs by LC-MS/MS analysis; assay type: ADME, organism-based; settings: in vivo
[38] = MRT in male Sprague-Dawley rat at 2 mg/kg, iv measured after 24 hrs by LC-MS/MS analysis; assay type: ADME, organism-based; settings: in vivo
[39] = Cmax in male Sprague-Dawley rat at 5 mg/kg, po measured after 24 hrs by LC-MS/MS analysis; assay type: ADME, organism-based; settings: in vivo
[40] = Tmax in male Sprague-Dawley rat at 5 mg/kg, po measured after 24 hrs by LC-MS/MS analysis; assay type: ADME, organism-based; settings: in vivo
[41] = AUC (0 to t) in male Sprague-Dawley rat at 5 mg/kg, po measured after 24 hrs by LC-MS/MS analysis; assay type: ADME, organism-based; settings: in vivo
[42] = Oral bioavailability in male Sprague-Dawley rat at 5 mg/kg measured after 24 hrs by LC-MS/MS analysis; assay type: ADME, organism-based; settings: in vivo
[43] = Volume of distribution at steady state in dog at 2 mg/kg, iv; assay type: ADME, organism-based, Canis lupus familiaris; settings: in vivo, read-out: Vdss
[44] = Half-life in dog at 2 mg/kg, iv; assay type: ADME, organism-based, Canis lupus familiaris; settings: in vivo
[45] = MRT in dog at 2 mg/kg, iv; assay type: ADME, organism-based, Canis lupus familiaris; settings: in vivo
[46] = Cmax in dog at 5 mg/kg, po; assay type: ADME, organism-based, Canis lupus familiaris; settings: in vivo
[47] = Tmax in dog at 5 mg/kg, po; assay type: ADME, organism-based, Canis lupus familiaris; settings: in vivo
[48] = AUC (0 to t) in dog at 5 mg/kg, po; assay type: ADME, organism-based, Canis lupus familiaris; settings: in vivo
[49] = Oral bioavailability in dog at 5 mg/kg; assay type: ADME, organism-based, Canis lupus familiaris; settings: in vivo
[50] = Volume of distribution at steady state in Cynomolgus monkey at 2 mg/kg, iv; assay type: ADME, organism-based, Macaca fascicularis; settings: in vivo, read-out: Vdss
[51] = Half-life in Cynomolgus monkey at 2 mg/kg, iv; assay type: ADME, organism-based, Macaca fascicularis; settings: in vivo
[52] = MRT in Cynomolgus monkey at 2 mg/kg, iv; assay type: ADME, organism-based, Macaca fascicularis; settings: in vivo
[53] = Cmax in Cynomolgus monkey at 5 mg/kg, po; assay type: ADME, organism-based, Macaca fascicularis; settings: in vivo
[54] = Tmax in Cynomolgus monkey at 5 mg/kg, po; assay type: ADME, organism-based, Macaca fascicularis; settings: in vivo
[55] = AUC (0 to t) in Cynomolgus monkey at 5 mg/kg, po; assay type: ADME, organism-based, Macaca fascicularis; settings: in vivo
[56] = Oral bioavailability in Cynomolgus monkey at 5 mg/kg; assay type: ADME, organism-based, Macaca fascicularis; settings: in vivo

T1 sequence (P08684 whole entry): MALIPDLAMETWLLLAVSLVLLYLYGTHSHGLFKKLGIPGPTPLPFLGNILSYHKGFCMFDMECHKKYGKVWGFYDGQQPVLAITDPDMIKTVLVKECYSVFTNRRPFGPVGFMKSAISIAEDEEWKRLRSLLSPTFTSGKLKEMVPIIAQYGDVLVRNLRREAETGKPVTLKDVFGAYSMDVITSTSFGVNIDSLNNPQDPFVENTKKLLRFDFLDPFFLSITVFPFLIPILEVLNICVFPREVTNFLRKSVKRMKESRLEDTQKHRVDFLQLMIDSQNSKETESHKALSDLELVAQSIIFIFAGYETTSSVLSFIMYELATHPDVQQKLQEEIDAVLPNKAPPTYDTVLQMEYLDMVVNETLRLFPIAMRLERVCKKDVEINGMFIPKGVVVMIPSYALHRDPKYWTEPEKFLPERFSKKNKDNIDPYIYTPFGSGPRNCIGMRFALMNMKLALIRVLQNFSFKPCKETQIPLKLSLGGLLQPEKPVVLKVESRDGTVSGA
Sequence of Hepatic sodium/bile acid cotransporter (Q14973 whole entry): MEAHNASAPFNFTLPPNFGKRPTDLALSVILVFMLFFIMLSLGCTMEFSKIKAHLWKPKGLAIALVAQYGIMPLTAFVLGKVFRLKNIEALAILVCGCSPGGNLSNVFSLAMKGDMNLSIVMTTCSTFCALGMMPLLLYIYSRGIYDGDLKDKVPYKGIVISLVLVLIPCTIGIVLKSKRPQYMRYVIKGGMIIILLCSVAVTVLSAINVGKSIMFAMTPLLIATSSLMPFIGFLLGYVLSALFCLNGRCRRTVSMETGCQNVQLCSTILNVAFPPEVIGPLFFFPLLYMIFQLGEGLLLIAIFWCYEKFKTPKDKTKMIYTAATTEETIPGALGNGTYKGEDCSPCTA
Sequence of Bile salt export pump (O95342 whole entry): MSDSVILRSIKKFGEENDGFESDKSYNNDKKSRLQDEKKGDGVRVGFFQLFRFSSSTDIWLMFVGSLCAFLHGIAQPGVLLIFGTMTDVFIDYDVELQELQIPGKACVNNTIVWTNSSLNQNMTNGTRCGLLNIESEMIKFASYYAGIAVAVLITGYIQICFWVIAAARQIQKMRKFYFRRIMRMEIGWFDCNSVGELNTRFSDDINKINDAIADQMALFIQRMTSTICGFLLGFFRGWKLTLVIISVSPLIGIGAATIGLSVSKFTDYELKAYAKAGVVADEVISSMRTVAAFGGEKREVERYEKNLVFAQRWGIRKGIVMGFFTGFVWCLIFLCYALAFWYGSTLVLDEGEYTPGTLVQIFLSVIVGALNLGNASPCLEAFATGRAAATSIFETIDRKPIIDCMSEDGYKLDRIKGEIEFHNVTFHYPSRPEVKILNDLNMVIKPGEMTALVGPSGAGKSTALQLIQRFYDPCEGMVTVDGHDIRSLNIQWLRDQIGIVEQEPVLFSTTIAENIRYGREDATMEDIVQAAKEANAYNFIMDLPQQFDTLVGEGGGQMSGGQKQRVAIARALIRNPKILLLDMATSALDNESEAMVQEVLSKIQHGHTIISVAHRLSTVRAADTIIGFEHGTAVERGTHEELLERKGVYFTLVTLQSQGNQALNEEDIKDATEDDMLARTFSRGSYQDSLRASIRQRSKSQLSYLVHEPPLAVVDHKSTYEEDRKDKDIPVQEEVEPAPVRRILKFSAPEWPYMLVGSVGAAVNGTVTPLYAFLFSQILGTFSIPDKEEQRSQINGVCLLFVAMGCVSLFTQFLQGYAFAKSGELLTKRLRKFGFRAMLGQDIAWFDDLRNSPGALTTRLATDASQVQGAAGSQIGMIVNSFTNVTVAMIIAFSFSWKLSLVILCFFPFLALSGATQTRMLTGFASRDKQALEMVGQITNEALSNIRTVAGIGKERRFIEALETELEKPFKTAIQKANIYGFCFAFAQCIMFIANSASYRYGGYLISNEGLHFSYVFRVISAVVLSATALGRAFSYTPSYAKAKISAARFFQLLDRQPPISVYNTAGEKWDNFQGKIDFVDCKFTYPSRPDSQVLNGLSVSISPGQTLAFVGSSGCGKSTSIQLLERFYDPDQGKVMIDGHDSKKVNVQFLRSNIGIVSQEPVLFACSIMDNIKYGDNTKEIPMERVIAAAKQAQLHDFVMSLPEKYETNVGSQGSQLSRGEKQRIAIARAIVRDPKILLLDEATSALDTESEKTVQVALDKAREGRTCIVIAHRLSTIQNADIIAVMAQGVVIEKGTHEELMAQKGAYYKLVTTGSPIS
Sequence of Organic anion transporter 3 (Q8TCC7 whole entry): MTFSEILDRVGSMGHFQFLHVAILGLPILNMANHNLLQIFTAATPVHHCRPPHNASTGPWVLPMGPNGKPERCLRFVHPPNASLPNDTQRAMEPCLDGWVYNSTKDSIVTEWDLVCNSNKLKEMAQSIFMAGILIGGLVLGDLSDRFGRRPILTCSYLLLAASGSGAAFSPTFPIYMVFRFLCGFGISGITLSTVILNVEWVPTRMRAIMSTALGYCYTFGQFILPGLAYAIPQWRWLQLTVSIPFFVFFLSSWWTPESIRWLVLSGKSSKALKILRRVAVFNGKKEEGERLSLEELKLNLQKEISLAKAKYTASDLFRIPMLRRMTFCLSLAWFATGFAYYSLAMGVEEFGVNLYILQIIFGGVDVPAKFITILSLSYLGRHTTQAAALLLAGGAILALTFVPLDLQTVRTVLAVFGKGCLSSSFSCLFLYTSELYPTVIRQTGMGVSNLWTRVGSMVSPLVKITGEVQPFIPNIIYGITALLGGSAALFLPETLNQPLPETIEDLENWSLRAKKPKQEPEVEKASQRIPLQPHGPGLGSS
Sequence of Solute carrier family 22 member 6 (Q4U2R8 whole entry): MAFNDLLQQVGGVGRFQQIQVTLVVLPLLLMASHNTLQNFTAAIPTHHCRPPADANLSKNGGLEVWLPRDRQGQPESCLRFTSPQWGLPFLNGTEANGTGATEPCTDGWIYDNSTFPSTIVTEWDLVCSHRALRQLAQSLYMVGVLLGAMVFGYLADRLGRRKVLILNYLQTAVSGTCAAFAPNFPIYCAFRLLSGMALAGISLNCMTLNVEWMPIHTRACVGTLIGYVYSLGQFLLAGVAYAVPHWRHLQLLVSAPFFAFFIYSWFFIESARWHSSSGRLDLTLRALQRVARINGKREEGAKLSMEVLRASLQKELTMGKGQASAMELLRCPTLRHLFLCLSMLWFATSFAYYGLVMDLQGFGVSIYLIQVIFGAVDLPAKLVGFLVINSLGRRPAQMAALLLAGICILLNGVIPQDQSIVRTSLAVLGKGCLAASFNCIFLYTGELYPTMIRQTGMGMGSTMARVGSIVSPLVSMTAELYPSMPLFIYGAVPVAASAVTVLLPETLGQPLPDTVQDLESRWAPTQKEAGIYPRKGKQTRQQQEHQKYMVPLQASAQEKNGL
Sequence of Multidrug and toxin extrusion protein 1 (Q96FL8 whole entry): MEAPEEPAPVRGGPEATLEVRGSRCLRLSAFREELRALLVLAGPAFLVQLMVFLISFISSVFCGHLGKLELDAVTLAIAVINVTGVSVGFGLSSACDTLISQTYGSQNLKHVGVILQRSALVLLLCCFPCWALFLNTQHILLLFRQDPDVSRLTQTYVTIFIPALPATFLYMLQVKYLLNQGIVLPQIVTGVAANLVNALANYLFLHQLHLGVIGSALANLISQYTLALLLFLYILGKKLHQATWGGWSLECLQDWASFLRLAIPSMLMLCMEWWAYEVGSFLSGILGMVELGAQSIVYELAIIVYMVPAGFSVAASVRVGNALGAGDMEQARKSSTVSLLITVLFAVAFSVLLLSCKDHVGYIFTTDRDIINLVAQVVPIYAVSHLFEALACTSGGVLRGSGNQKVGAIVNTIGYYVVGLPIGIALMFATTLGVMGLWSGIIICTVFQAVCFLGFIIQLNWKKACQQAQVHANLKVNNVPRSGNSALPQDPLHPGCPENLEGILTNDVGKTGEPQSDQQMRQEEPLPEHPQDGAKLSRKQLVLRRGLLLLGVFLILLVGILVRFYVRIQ
Sequence of Nuclear receptor subfamily 1 group I member 2 (O75469 whole entry): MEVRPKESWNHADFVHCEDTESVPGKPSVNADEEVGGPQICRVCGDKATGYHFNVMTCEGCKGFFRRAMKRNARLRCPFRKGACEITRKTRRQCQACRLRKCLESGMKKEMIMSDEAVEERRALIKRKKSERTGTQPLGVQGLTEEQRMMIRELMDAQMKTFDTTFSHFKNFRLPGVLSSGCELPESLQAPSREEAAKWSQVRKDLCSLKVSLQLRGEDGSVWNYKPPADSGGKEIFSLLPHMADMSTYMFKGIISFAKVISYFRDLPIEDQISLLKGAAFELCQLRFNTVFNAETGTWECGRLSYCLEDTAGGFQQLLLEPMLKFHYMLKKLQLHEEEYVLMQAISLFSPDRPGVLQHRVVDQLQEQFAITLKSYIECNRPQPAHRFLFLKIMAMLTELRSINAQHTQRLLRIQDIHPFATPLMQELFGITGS
Sequence of Cytochrome P450 2C8 (P10632 whole entry): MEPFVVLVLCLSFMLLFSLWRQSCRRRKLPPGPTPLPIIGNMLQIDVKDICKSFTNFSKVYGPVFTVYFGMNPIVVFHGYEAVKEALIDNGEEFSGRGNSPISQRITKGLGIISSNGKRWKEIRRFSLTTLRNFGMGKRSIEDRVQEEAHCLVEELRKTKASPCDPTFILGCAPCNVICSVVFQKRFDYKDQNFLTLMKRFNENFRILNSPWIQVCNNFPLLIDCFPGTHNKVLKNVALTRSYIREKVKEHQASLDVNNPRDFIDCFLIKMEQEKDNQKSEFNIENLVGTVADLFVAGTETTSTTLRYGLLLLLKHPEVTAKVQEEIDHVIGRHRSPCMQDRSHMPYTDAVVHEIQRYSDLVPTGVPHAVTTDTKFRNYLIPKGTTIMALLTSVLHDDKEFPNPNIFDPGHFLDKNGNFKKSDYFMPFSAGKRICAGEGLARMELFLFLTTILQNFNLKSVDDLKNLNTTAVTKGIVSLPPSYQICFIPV
Sequence of CYP3A4 (P08684 whole entry): as the sequence (P08684 whole entry) above

remaining at 10 min, 10 µM [1]: 90%
remaining at 10 min, 10 µM [2]: 92%
Activity [3]: Not Active
IC50 [4]: > 10 µM
IC50 [5]: > 10 µM
IC50 [6]: > 10 µM
IC50 [7]: > 10 µM
Papp A→B [8]: 110 ×10⁻⁶ cm/s
permeability [9]: 570 10^-6 cm/s
IC50 (Cytochrome P450 1A2): > 40 µM
IC50 (Cytochrome P450 2B6): > 40 µM
IC50 (Cytochrome P450 2C8): > 40 µM
IC50 (Cytochrome P450 2C9): > 40 µM
IC50 (Cytochrome P450 2C19): > 40 µM
IC50 (Cytochrome P450 2D6): > 40 µM
IC50 (Cytochrome P450 3A4 [10]): > 40 µM
IC50 (Cytochrome P450 3A4 [11]): > 40 µM
IC50 (CYP1A2): > 40 µM
IC50 (CYP2B6): > 40 µM
IC50 (CYP3A4): > 40 µM
PPB [12]: 52%
PPB [13]: 68%
PPB [14]: 83%
PPB [15]: 76%
PPB [16]: 74%
EC50 [17]: > 50 µM
IC50 [20]: > 18 µM
IC50 [21]: > 18 µM
IC50 [22]: > 18 µM
IC50 [23]: > 18 µM
IC50 [24]: > 18 µM
IC50 [25]: > 18 µM
IC50 [26]: > 18 µM
solubility [27]: 14000 µg/mL (≈ 31.6 mM)
solubility [28]: 30 µg/mL (≈ 0.0676 mM)
Vd [29]: 2.6 L/kg
half-life [30]: 2.8 h
MRT [31]: 4 h
Cmax [32]: 2800 nM
Tmax [33]: 0.25 h
AUC(0-t) [34]: 14 µM·h
bioavailability [35]: 83%
Vd [36]: 2.8 L/kg
half-life [37]: 4.8 h
MRT [38]: 5.8 h
Cmax [39]: 3800 nM
Tmax [40]: 0.8 h
AUC(0-t) at 24 h [41]: 18 µM·h
bioavailability [42]: 76%
Vd [43]: 1.7 L/kg
half-life [44]: 3.3 h
MRT [45]: 1.7 h
Cmax [46]: 1900 nM
Tmax [47]: 0.8 h
AUC(0-t) [48]: 5.7 µM·h
bioavailability [49]: 48%
Vd [50]: 5.1 L/kg
half-life [51]: 4.2 h
MRT [52]: 3.6 h
Cmax [53]: 1000 nM
Tmax [54]: 2 h
AUC(0-t) [55]: 5.5 µM·h
bioavailability [56]: 69%
Compound: Cc1cc(-n2ncc(CN3C[C@@H](c4ccc5c(c4C)COC5=O)N[C@@H](C)C3)n2)ncc1C#N
IC50 [18]: > 100 µM
IC50 [19]: 2.7 µM
IC50 (Bile salt export pump): 7 µM
